Source: publication PMC10492782, “Exploiting the aggregation propensity of beta-lactamases to design inhibitors that induce enzyme misfolding” (Nature Communications, 2023)
Converted amounts (≈) assume the structure as drawn. Where two headings read alike, the source gives them in different places. Residues, ends and D or L forms follow the SMILES beside them.

Key:
[1] = system: E. coli strain UZ_TEM104; test: microbe, parasite or virus in culture; format: cell-based, Escherichia coli
[2] = system: E. coli strain UZ_TEM104; details: broth microdilution, MHB, overnight 37 °C, peptide alone
Excerpt: Pept-Ins consist of a tandem repeat of the APR, each instance flanked by charged amino acids for solubility and separated by a short peptide linker[20],[21],[24] (Fig. 3A). Previous work has shown that good bacterial uptake can be achieved using one positively charged arginine residue on the N-terminal side of each APR in the tandem and two arginine residues on the C-terminal side[20],[21]. […] As before, we employed a single Pro residue as a linker between the APRs and focused on an APR length of seven, extending shorter APRs to this length by incorporating flanking amino acids unless they were obvious aggregation breakers (Arg, Lys, Asp, Glu or Pro, see Table 1).
Determination of MIC values was performed using the broth microdilution method according to the EUCAST guideline, which was performed in 96-well polystyrene flat-bottom microtiter plates (BD Biosciences). Briefly, a single colony was inoculated into 5 mL Difco™ Mueller–Hinton Broth (BD Biosciences Ref 275730) and grown to the end-exponential growth phase in a shaking incubator at 37 °C. Cultures were subsequently diluted to a MacFarland (0.5 optical density) to reach 10^6 CFU/mL in fresh MHB medium. 50 µl of different concentrations of peptides ranging from 128 to 2 µg/mL were serially diluted to the sterile 96-well plate in MHB. 50 µL of the diluted bacteria in MHB were next pipetted into 96-well plates to reach the final volume of 100 µL. The bacteria grown with the maximum concentration of carrier and medium were considered positive and negative controls, respectively. The plates were statically incubated overnight at 37 °C to allow bacterial growth. OD was measured at 590 nm using a multipurpose ultraviolet–visible plate reader, and the absorbance of the bacterial growth was measured using an absorbance reader.

[3] = system: E. coli; format: cell-based, Escherichia coli; details: E.coli TEM104, Suppl. Figure 5
Description: For the analysis of synergy between the peptides and other antibiotics, a checkerboard assay was performed. Based on the MICs of the selected peptides, a checkerboard assay was designed to define their FICIs (Fractional Inhibitory Concentration Index) in combinations against different clinical isolates[53],[54]. Briefly, a total volume of 100 μL of Mueller–Hinton broth was distributed into each well of the 96-well plates. The first compound (peptide) of the combination was serially diluted vertically (128, 64, 32, 16, 8, 4, 2, 0 μg/mL) while the other drug (Beta-lactam or Kanamycin) was diluted horizontally in a 96-well plate (from 3200 to 3 μg/ mL). The total volume of each microtiter well was inoculated with 100 μL of MHB containing 1 × 10^6 CFU/mL bacteria. The plates were incubated at 37 °C for 24 h under aerobic conditions without shaking. Calculation of the FICI is used to analyze the results of the checkerboard assay by estimating the degree of synergistic effect. FICI is calculated as the sum of the individual fractional inhibitory concentrations (FICs) for each drug (where MIC A and MIC B denote the MIC of each drug alone, and MIC AA+B and MIC BA+B denote the concentrations of A and B in the drug combination). FICI = (MIC AA+B/MIC A) + (MIC BA+B/MIC B). With FICI ≤ 0.5, the combination of antibiotics is considered as a synergistic effect, 0.5 < FICI ≤ 1 indicates additivity, FICI > 1 indicates indifference. […]
Supplementary Figure 5: Fraction Inhibitory Concentration Index (FICI) values obtained from checkerboard assays between control peptides 1-4 and penicillin G. The peptide sequences were obtained by introducing proline mutations in TEM3.2 as follows: Pro1 […]
([…]), Pro2 ([…]), Pro3
([…]) and Pro4 ([…]). Each of the five dots […]
per condition indicates an independent experiment of the measurement consisting of 96 datapoints. FICI values below 0.5 indicate synergy (shaded in green). Values between 0.5 and 1.0 indicate additivity (shaded in yellow) and values greater than 1 indicate indifference (shaded in red) between the combined substances. […]

[4] = system: E. coli TEM-30; format: cell-based, Escherichia coli; details: for Interoretation: E. coli TEM-30; for Interpretation: VITEK 2 AST card
Description: (§1) Beta-lactamase clinical samples were collected from University Hospitals Leuven and tested for ESBL production using the disk diffusion method. The beta-lactamase reference isolates were purchased from International Health Management Associates (IHMA). Bacterial strains were cultivated in Mueller–Hinton Broth (MHB, Difco) at 37 °C. Whenever required, growth media were supplemented with appropriate antibiotics to the medium or plates (kanamycin 30 µg/mL, L-arabinose 0.5 mg/mL, and IPTG […]). Escherichia coli BL21 (ThermoFisher Scientific, Belgium) was used for cloning and plasmid amplification. For the selection of antibiotic resistant colonies, E. coli carrying plasmids was grown in LB agar plates supplemented with the relevant antibiotic. Bacterial CFU counting was done on blood agar plates (BD Biosciences, Belgium) or MHA agar plates. Species identification and antibiograms for all clinical isolates were performed using MALDI-Tof and VITEK® 2 automated system (BioMérieux, France).
(§2) Khodaparast et al Supplementary data
(§3) study. […] Abbreviations: S,
(§4) susceptible; I, intermediate; R, resistant.

[5] = system: E. coli NDM5a; test: VITEK 2 AST antimicrobial susceptibility testing; format: cell-based, Escherichia coli; details: for Interoretation: E. coli NDM5a; for Interpretation: VITEK 2 AST card
Description: as §1, §2, §3, §4

[6] = system: E. coli TEM-104; test: VITEK 2 AST antimicrobial susceptibility testing; format: cell-based, Escherichia coli; details: for Interoretation: E. coli TEM-104; for Interpretation: VITEK 2 AST card
Description: as §1, §2, §3, §4

[7] = system: E. coli NDM5b; test: VITEK 2 AST antimicrobial susceptibility testing; format: cell-based, Escherichia coli; details: for Interoretation: E. coli NDM5b; for Interpretation: VITEK 2 AST card
Description: as §1, §2, §3, §4

[8] = system: E. coli TEM-206; test: VITEK 2 AST antimicrobial susceptibility testing; format: cell-based, Escherichia coli; details: for Interoretation: E. coli TEM-206; for Interpretation: VITEK 2 AST card
Description: as §1, §2, §3, §4

[9] = system: E. coli SHV1 (APHA); test: VITEK 2 AST antimicrobial susceptibility testing; format: cell-based, Escherichia coli; details: for Interoretation: E. coli SHV154; for Interpretation: VITEK 2 AST card
Description: as §1, §2, §3, §4

[10] = system: E. coli TEM-16; test: VITEK 2 AST antimicrobial susceptibility testing; format: cell-based, Escherichia coli; details: for Interoretation: E. coli TEM-16; for Interpretation: VITEK 2 AST card
Description: as §1, §2, §3, §4

[11] = system: E. coli TEM-148; test: VITEK 2 AST antimicrobial susceptibility testing; format: cell-based, Escherichia coli; details: for Interoretation: E. coli TEM-148; for Interpretation: VITEK 2 AST card
Description: as §1, §2, §3, §4

[12] = E. coli UZ_TEM104, concentration of additive 50 (mg/mL [sic])
[13] = in the presence of additive (peptide or tazobactam) at fixed 50 μg/mL

CC(=O)N[C@@H](CCCNC(=N)N)C(=O)N[C@@H](Cc1ccccc1)C(=O)N[C@@H](Cc1ccccc1)C(=O)N[C@@H](C)C(=O)N[C@@H](C)C(=O)N[C@@H](Cc1ccccc1)C(=O)N[C@@H](CS)C(=O)N[C@@H](CC(C)C)C(=O)N[C@@H](CCCNC(=N)N)C(=O)N[C@@H](CCCNC(=N)N)C(=O)N1CCC[C@H]1C(=O)N[C@@H](CCCNC(=N)N)C(=O)N[C@@H](Cc1ccccc1)C(=O)N[C@@H](Cc1ccccc1)C(=O)N[C@@H](C)C(=O)N[C@@H](C)C(=O)N[C@@H](Cc1ccccc1)C(=O)N[C@@H](CS)C(=O)N[C@@H](CC(C)C)C(=O)N[C@@H](CCCNC(=N)N)C(=O)N[C@@H](CCCNC(=N)N)C(N)=O [TEM1.0] (Ac-RFFAAFCLRRPRFFAAFCLRR-NH2)
MIC penicillin [1, 12]: 1600 mg/mL (≈ 594 mM) | MIC penicillin [1, 13]: 1.6 mg/mL | MIC peptide [2]: >0.1 mg/mL

Ac-RAGWFIARRPRAGWFIARR-NH2 [TEM5.0]
MIC penicillin [1, 12]: 1600 mg/mL | MIC penicillin [1, 13]: 1.6 mg/mL | MIC peptide [2]: 0.1 mg/mL

Ac-RGIIAALGRRPRGIIAALGRR-NH2 [TEM6.0]
MIC penicillin [1, 12]: 1600 mg/mL | MIC penicillin [1, 13]: 1.6 mg/mL | MIC peptide [2]: >0.1 mg/mL

Ac-RIVVIYTTRRPRIVVIYTTRR-NH2 [TEM7.0]
MIC penicillin [1, 12]: 1600 mg/mL | MIC penicillin [1, 13]: 1.6 mg/mL | MIC peptide [2]: >0.1 mg/mL

Ac-RLLLTTIGRRPRLLLTTIGRR-NH2 [TEM2.0]
MIC penicillin [1, 12]: 800 mg/mL | MIC penicillin [1, 13]: 0.8 mg/mL | MIC peptide [2]: >0.1 mg/mL

Ac-RLLTLASRRPRLLTLASRR-NH2 [TEM4.0]
MIC penicillin [1, 12]: 1600 mg/mL | MIC penicillin [1, 13]: 1.6 mg/mL | MIC peptide [2]: 0.1 mg/mL

Ac-RLPPFLHNRRPRLPPFLRQRR-NH2 [Pro2]
FICi values ([3]; Replicate1): 0.75 | FICi values ([3]; Replicate2): 0.625 | FICi values ([3]; Replicate3): 0.67 | FICi values ([3]; Replicate4): 0.71

Ac-RLTAFLHNRRPRLTAFLHNRR-NH2 [TEM3.0]
MIC peptide [2]: >0.1 mg/mL

Ac-RLTPFPHNRRPRLTPFPRQRR-NH2 [Pro4]
FICi values ([3]; Replicate1): 2 | FICi values ([3]; Replicate2): 2 | FICi values ([3]; Replicate3): 2 | FICi values ([3]; Replicate4): 2

Ac-RPTAPLHNRRPRPTAPLRQRR-NH2 [Pro1]
FICi values ([3]; Replicate1): 2 | FICi values ([3]; Replicate2): 2 | FICi values ([3]; Replicate3): 2 | FICi values ([3]; Replicate4): 2

Ac-RPTPFLHNRRPRPTPFLRQRR-NH2 [Pro3]
FICi values ([3]; Replicate1): 2 | FICi values ([3]; Replicate2): 2 | FICi values ([3]; Replicate3): 2 | FICi values ([3]; Replicate4): 2

Colistin
Interoretation [4]: S | Interpretation [4]: S | Interoretation [5]: S | Interpretation [5]: S | Interoretation [6]: S | Interpretation [6]: S | Interoretation [7]: S | Interpretation [7]: S | Interoretation [8]: S | Interpretation [8]: S | Interoretation [9]: S | Interpretation [9]: S | Interoretation [10]: S | Interpretation [10]: S | Interoretation [11]: S | Interpretation [11]: S

Piperacillin / tazobactam
Interoretation [4]: *R | Interpretation [4]: *R | Interoretation [5]: R | Interpretation [5]: R | Interoretation [6]: *I | Interpretation [6]: *I | Interoretation [7]: R | Interpretation [7]: R | Interoretation [8]: *R | Interpretation [8]: *R | Interoretation [9]: R | Interpretation [9]: R | Interoretation [10]: *R | Interpretation [10]: *R | Interoretation [11]: *R | Interpretation [11]: *R

Trimethoprim/sulfamethoxazole
Interoretation [4]: S | Interpretation [4]: S | Interoretation [5]: S | Interpretation [5]: S | Interoretation [6]: S | Interpretation [6]: S | Interoretation [7]: R | Interpretation [7]: R | Interoretation [8]: R | Interpretation [8]: R | Interoretation [9]: R | Interpretation [9]: R | Interoretation [10]: S | Interpretation [10]: S | Interoretation [11]: R | Interpretation [11]: R
